Reference: article PMC12749748, “Chemically-induced degradation of the endoplasmic-reticulum stress sensor IRE1 by a VHL-recruiting chimera” (Nature Communications, 2025)
Entries after “also recorded” stand apart in the source; their conditions may differ.

Tests used:
Type in all cases: cell-based
IRE1 H579A:VHL = target: T1, IRE1 H579A:VHL (Homo sapiens, UniProt O75460+P40337, H579A); experiment: NanoBRET IRE1:VHL interaction, IRE1 H579A, HEK293T cells
T1 construct: N2731; host or cells: HEK293T
Procedure: (§1) 8 × 10^5 293T cells per well were seeded in 6-well plates (Costar, #3516) and incubated at 37 °C, 5% CO2 for 6 h. A mixture of 0.2 µg ERN1 (IRE1)-NanoLuc Fusion Vector (Promega, NV1321), 2 µg HaloTag-VHL Fusion Vector (Promega, N2731), 6 µl FuGENE HD Transfection Reagent (Promega, E2311), and 100 µL Opti-MEM I reduced serum medium (Gibco, #31985062) per well was incubated at room temperature for 20 min before adding to cells. For expression of IRE1 mutants, site-directed mutagenesis was performed using the ERN1-NanoLuc Fusion Vector as the DNA template, and the transfection mixture was prepared in the same way as WT IRE1. After 18 h, cells from 6-well plates were trypsinized, resuspended in Opti-MEM I reduced serum medium, and reseeded into 96-well plates (Costar, #3917), with or without the addition of HaloTag NanoBRET 618 Ligand (Promega, G9801). After 18 h of incubation, a titration of G6374 (dilutions made in Opti-MEM I reduced serum medium) was added to the cells. After 2 h of G6374 treatment, NanoBRET Nano-Glo Substrate (Promega, N1571) was added to cells. The 96-well plates were imaged by GloMax Discover Microplate Reader (Promega, GM3000) with the default “BRET: NanoBRET 618” protocol (Donor: 450 BP; Acceptor: 600 LP; Integration: 0.3 s). Data analysis was performed according to the user manual.

IRE1 H579A = target: T2, IRE1 H579A (Homo sapiens, UniProt O75460+P40337, H579A); experiment: NanoLuc signal IRE1 depletion, IRE1 H579A, HEK293T cells; settings: HEK-293T
T2 construct: N2731; host or cells: HEK293T
Procedure: as §1

IRE1 [1] = target: T3, IRE1 (Homo sapiens, UniProt O75460); experiment: Immunoblot of endogenous IRE1 depletion in AMO1 cells; design: Immunoblot (IB) analysis of endogenous IRE1 depletion in AMO1 cells; endogenous in cells; host or cells: AMO1
Procedure: (§2) Cells were lysed in buffer containing 20 mM HEPES 7.2, 150 mM NaCl, and 1% Triton X-100, supplemented with fresh protease and phosphatase inhibitors (Invitrogen, #78440), cleared by centrifugation at 12,000 × g for 10 min, and analyzed by BCA protein assay (Thermo Fisher Scientific, #23227). Equal protein amounts were loaded, separated by SDS-PAGE, electrotransferred to nitrocellulose membranes using the iBLOT2 system (Invitrogen), and blocked in 5% nonfat milk solution for 60 min. Membranes were probed with primary antibodies at 1:1000 dilution in 5% milk at 4 °C overnight. Signal was detected using appropriate horseradish peroxidase (HRP)-conjugated secondary antibodies at 1:10,000 in 5% milk at room temperature for 1–2 h. Bands were visualized by the Azure 600 western blot imaging system (Azure Biosystems). For in vitro ubiquitination assays performed with Me-Ub, bands were visualized by the Odyssey CLx Imager (LI‑COR) after incubating the blots with the IRDye 800CW (LI-COR) secondary antibodies at 1:10,000 in Intercept Blocking Buffer (LI-COR) at room temperature for 1–2 h.

IRE1 [2] = target: T3, IRE1; experiment: IP-IB of K48-linked ubiquitination of endogenous IRE1 in AMO1 cells; design: Immunoblot (IB) analysis of endogenous IRE1 depletion in AMO1 cells; endogenous in cells; host or cells: AMO1; settings: 3 µM, 2 h, compared to DMSO
Procedure: as §2
IRE1.LD antibodies were conjugated to agarose beads using the AminoLink® Plus Immobilization Kit (Thermo Fisher, #44894). […]

[3] = AMO1 cells, 17 h, immunoblot quantification, n = 4, mean ± SEM

T3 sequence (O75460 19-977): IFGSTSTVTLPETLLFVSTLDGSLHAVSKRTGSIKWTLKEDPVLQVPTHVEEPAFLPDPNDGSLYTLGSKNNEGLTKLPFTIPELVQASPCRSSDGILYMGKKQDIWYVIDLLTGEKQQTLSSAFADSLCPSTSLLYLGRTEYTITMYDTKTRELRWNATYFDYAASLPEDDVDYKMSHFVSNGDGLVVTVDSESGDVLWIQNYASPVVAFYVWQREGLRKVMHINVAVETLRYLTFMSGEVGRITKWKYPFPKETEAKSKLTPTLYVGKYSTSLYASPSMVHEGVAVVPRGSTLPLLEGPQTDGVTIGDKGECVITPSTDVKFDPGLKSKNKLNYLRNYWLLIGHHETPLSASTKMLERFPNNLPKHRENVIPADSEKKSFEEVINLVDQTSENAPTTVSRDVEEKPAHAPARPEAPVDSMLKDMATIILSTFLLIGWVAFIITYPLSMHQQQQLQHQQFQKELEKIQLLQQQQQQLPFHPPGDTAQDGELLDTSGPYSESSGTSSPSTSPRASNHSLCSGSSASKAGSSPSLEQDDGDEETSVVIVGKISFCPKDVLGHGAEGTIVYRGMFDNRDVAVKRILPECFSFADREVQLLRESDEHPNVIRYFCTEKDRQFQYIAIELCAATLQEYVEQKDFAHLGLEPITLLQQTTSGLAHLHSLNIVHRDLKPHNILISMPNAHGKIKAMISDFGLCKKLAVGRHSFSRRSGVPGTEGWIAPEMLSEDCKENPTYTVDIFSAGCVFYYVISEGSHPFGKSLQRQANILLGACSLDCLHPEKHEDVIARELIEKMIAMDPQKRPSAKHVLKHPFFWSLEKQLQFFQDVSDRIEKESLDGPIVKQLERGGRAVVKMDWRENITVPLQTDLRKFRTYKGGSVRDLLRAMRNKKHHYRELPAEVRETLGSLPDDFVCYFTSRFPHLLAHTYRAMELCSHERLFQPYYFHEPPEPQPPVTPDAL
T2 sequence (O75460 19-977 H579A): as the sequence (O75460 19-977) above, with H561A counted along it
T2 sequence (P40337 whole entry): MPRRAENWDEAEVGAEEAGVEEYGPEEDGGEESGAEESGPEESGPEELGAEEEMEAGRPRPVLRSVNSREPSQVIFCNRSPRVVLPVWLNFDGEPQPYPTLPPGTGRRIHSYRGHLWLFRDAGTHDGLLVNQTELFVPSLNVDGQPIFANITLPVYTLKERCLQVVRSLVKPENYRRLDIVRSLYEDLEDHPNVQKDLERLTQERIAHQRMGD
T2 sequence (Q15369 whole entry partner): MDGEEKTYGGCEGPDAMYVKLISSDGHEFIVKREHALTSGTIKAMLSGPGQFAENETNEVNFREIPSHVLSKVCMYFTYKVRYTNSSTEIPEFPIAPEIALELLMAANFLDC
T2 sequence (Q15370 whole entry partner): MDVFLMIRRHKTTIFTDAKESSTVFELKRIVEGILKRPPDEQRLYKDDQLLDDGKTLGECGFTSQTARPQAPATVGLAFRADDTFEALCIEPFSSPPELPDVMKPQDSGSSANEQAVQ
T2 sequence (Q13617 whole entry partner): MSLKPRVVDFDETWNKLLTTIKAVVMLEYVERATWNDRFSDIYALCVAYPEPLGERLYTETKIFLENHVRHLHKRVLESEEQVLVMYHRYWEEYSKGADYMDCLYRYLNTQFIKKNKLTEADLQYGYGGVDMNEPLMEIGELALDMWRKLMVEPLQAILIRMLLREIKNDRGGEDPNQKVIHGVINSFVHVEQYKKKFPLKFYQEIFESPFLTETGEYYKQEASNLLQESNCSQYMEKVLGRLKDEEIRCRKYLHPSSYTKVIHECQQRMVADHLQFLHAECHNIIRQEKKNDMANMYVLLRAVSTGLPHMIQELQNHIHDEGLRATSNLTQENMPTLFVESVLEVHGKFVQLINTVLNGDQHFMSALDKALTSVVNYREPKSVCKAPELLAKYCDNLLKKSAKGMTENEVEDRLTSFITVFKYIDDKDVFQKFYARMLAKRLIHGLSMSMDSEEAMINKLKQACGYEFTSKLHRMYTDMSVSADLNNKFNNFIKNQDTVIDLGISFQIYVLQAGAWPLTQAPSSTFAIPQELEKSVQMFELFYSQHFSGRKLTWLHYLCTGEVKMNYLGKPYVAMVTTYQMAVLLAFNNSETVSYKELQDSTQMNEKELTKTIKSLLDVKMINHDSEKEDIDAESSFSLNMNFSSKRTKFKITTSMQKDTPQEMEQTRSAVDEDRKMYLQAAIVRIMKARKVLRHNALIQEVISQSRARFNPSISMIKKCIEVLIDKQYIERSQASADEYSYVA
T2 sequence (P62877 whole entry partner): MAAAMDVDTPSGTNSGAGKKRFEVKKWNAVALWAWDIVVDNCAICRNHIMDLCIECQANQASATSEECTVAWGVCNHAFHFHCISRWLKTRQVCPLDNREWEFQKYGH
T1 sequence (O75460 19-977 H579A): as the sequence (O75460 19-977) above, with H561A counted along it
T1 sequence (Q13617 whole entry, further chain): as the sequence (Q13617 whole entry partner) above
T1 sequence (Q15370 whole entry, further chain): as the sequence (Q15370 whole entry partner) above
T1 sequence (P62877 whole entry, further chain): as the sequence (P62877 whole entry partner) above
T1 sequence (P40337 whole entry): as the sequence (P40337 whole entry) above
T1 sequence (Q15369 whole entry, further chain): as the sequence (Q15369 whole entry partner) above

## Cc1ncsc1-c1ccc(CNC(=O)[C@@H]2C[C@@H](O)CN2C(=O)[C@@H](NC(=O)CCCCN2CCN([C@H]3CC[C@H](Nc4ncc5ccc(=O)n(C(C)C)c5n4)CC3)CC2)C(C)(C)C)cc1 [G6374]
IRE1 H579A:VHL
  EC50: 450 ± 60 nM
IRE1 H579A
  Dmax: 27%
IRE1 [1]; AMO1 and KMS27 cells, G6374 3 µM, 2 hr, Tg 100 nM or Tm 5 µg/ml, 6 hr
  IRE1 depletion under ER stress (thapsigargin or tunicamycin): did not encumber G6374-driven IRE1 depletion
IRE1 [1]; AMO1 cells, 1 µM, 0-8 h
  IRE1 depletion over a time course: reaches near maximum levels by 4 hr; also recorded: near complete IRE1 depletion by 4 h
IRE1 [1]; [3]
  DC50: 40 nM
  Dmax: 93%
IRE1 [2]
  K48-linked ubiquitination of endogenous IRE1: significant increase in K48-linked ubiquitination of endogenous IRE1
